Assay results published in ChEMBL document CHEMBL1131574, “Specific and irreversible cyclopeptide inhibitors of dipeptidyl peptidase IV activity of the T-cell activation antigen CD26” (J Med Chem, 1998).

Molecular target: Dipeptidyl peptidase 4 (Homo sapiens, UniProt P27487)
Assay: Inhibitory activity against hydrolysis of Gly-Pro-pNa by CD26 (Dipeptidyl peptidase IV) purified from CEM H01 cells
Type: cell-free, CCRF-CEM

Sequence of Dipeptidyl peptidase 4 (P27487 whole entry): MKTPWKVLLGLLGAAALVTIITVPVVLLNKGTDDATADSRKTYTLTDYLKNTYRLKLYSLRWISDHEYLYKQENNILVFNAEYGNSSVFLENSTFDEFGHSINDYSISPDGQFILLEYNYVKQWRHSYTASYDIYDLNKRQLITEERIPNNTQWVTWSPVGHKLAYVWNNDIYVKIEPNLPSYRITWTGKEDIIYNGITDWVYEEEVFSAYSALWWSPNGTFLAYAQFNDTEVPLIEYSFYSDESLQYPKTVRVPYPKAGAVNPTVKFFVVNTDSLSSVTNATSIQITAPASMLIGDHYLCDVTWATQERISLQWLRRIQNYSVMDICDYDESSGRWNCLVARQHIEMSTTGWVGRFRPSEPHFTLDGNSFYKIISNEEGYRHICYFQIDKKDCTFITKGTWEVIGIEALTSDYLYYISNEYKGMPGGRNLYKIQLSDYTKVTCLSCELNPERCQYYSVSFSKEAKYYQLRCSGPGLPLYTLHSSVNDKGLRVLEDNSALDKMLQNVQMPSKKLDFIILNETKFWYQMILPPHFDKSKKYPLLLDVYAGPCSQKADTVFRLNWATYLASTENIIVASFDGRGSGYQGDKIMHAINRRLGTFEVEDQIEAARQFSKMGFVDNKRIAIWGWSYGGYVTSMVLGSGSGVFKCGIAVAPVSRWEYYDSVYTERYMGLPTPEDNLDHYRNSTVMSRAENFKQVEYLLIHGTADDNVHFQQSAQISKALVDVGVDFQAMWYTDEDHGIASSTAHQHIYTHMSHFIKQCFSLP

Structure (SMILES): CCCCCCCC[S+](CCCCCCCC)Cc1ccc2cc1C(=O)NCC(=O)NCC(=O)NCCCC[C@H](N)C(=O)N1CCC[C@H]1C(=O)N2
- IC50: 30 nM
